The values that follow come from patent publication US20070129379A1 (priority 2005, published 2007).

The assay addresses T1, HIV-integrase (Human immunodeficiency virus type 1 group M subtype B, UniProt P12497).
T1 construct: Recombinant integrase (0.26 ng) was incubated with the beads
Briefly: HIV-Integrase Inhibition Activity (SPA strand transfer assay). Format: biochemical. Particulars: recombinant integrase, biotin labeled substrate DNA on SPA beads, P33 labeled target DNA. On the procedure: HIV-Integrase Inhibition Activity. To evaluate in-vitro activity against HIV-integrase, 5 pmole of biotin labeled substrate DNA was bound to 100 μg of Streptavidin coated PVT SPA beads (Amersham Pharmacia Biotech). Recombinant integrase (0.26 ng) was incubated with the beads for 90 min at 37° C. Unbound enzyme was removed by washing the complex followed by addition of inhibitors and 0.1 fmol of P33 labeled target DNA. The reaction was stopped by adding EDTA to a final concentration of 10 mM. Samples were counted in TopCountNXT (Packard) and the CPM was used as a measure of integration. The reaction condition was as described in A. Engleman and R. Craige, J. Virol. 69, 5908-5911 (1995). The sequences of substrate and target DNA were described in Nucleic Acid Research 22, 1121-1122 (1994). Activity equal to A refers to a compound having IC50=0.002 to 0.10 μM while B and C denote compounds having IC50=0.1 to 1.0 μM and IC50≧1.0 μM respectively.
As a reminder, the IC50 is the concentration that inhibits the measured activity by half. Take `Cn1c(C2(C)CCCO2)nc(C(=O)NCc2ccc(F)cc2-n2cncn2)c(O)c1=O` (stereo not drawn) [Example 10]: the IC50 lay within 2 to 100 nM.

Consider `COCCOC1(c2nc(C(=O)NCc3ccc(F)cc3)c(O)c(=O)n2C)CCC1` [Example 15, N-(4-Fluorobenzyl)-5-hydroxy-2-(1-(2-methoxyethoxy)cyclobutyl)-1-methyl-6-oxo-1,6-dihydropyrimidine-4-carboxamide], for which the 50% inhibitory concentration (IC50) lay in the range of 2 to 100 nM.

`COC(C)(C)c1nc(C(=O)NCc2ccc(F)cc2)c(O)c(=O)n1C` [Example 1, N-(4-Fluorobenzyl)-5-hydroxy-2-(2-methoxypropan-2-yl)-1-methyl-6-oxo-1,6-dihydropyrimidine-4-carboxamide]: the IC50 is 2 to 100 nM.

As for `CSCCOC1(c2nc(C(=O)NCc3ccc(F)cc3-n3cncn3)c(O)c(=O)n2C)CCC1` [Example 14, N-(4-Fluoro-2-(1H-1,2,4-triazol-1-yl)benzyl)-5-hydroxy-1-methyl-2-(1-(2-(methylthio)-ethoxy)cyclobutyl)-6-oxo-1,6-dihydropyrimidine-4-carboxamide], the IC50 lay within 2 to 100 nM.

For `Cn1c(C2(OCCO)CCC2)nc(C(=O)NCc2ccc(F)cc2)c(O)c1=O` [Example 12, 5-Hydroxy-2-[1-(2-hydroxy-ethoxy)-cyclobutyl]-1-methyl-6-oxo-1,6-dihydro-pyrimidine-4-carboxylic acid 4-fluoro-benzylamide], the IC50 fell in the range of 2 to 100 nM.

For the molecule `Cn1c(C(C)(C)C)nc(C(=O)NCc2ccc(F)cc2)c(O)c1=O` [Example 4, 2-tert-Butyl-5-hydroxy-1-methyl-6-oxo-1,6-dihydro-pyrimidine-4-carboxylic acid 4-fluoro-benzylamide], the IC50 was in the range of 2 to 100 nM.

`COCCOC1(c2nc(C(=O)NCc3ccc(F)cc3S(=O)(=O)N(C)C)c(O)c(=O)n2C)CCC1` [Example 18]: the IC50 was 2 to 100 nM.

As to `CSCCCCC(C)(C)c1nc(C(=O)NCc2ccc(F)cc2)c(O)c(=O)n1C` [Example 5], the IC50 is 2 to 100 nM.

Turning to `COCCOC1(c2nc(C(=O)NCc3ccc(F)cc3S(C)(=O)=O)c(O)c(=O)n2C)CCC1` [Example 17, N-(4-Fluoro-2-(methylsulfonyl)benzyl)-5-hydroxy-2-(1-(2-methoxyethoxy)cyclobutyl)-1-methyl-6-oxo-1,6-dihydropyrimidine-4-carboxamide], the IC50 was in the range of 2 to 100 nM.

As for `Cn1c(C2(C)CCCO2)nc(C(=O)NCc2ccc(F)cc2S(C)(=O)=O)c(O)c1=O` (stereo not drawn) [Example 11], the IC50 lay within 2 to 100 nM.

`CC(C)(C)c1nc(O)c(O)c(C(=O)NCc2ccc(F)cc2)n1` [Example 3, 2-tert-Butyl-5-hydroxy-6-oxo-1,6-dihydro-pyrimidine-4-carboxylic acid 4-fluoro-benzylamide]: the half-maximal inhibitory concentration (IC50) fell in the range of 2 to 100 nM.

As for `Cn1c(C2(OCCO)CCC2)nc(C(=O)NCc2ccc(F)cc2-n2cncn2)c(O)c1=O` [Example 13], the IC50 lay in the range of 2 to 100 nM.

With `Cn1c(C2(C)CCCS2)nc(C(=O)NCc2ccc(F)cc2-n2cncn2)c(O)c1=O` (stereo not drawn) [Example 7, N-(4-Fluoro-2-(1H-1,2,4-triazol-1-yl)benzyl)-5-hydroxy-1-methyl-2-(2-methyl-tetrahydrothiophen-2-yl)-6-oxo-1,6-dihydropyrimidine-4-carboxamide], the IC50 lay within 2 to 100 nM.

On to `COCCOC1(c2nc(C(=O)NCc3ccc(F)cc3-n3cncn3)c(O)c(=O)n2C)CCC1` [Example 16, N-(4-Fluoro-2-(1H-1,2,4-triazol-1-yl)benzyl)-5-hydroxy-2-(1-(2-methoxyethoxy)cyclobut-yl)-1-methyl-6-oxo-1,6-dihydropyrimidine-4-carboxamide], for which the IC50 lay within 2 to 100 nM.

In the case of `Cn1c(C2(C)CCCO2)nc(C(=O)NCc2ccc(F)cc2)c(O)c1=O` (stereo not drawn) [Example 9], the IC50 is 2 to 100 nM.

In the case of `COC(C)(C)c1nc(C(=O)NCc2ccc(F)c(C)c2)c(O)c(=O)n1C` [Example 2], the concentration for half-maximal inhibition (IC50) lay within 2 to 100 nM.

For `Cn1c(C2(C)CCCS2)nc(C(=O)NCc2ccc(F)cc2)c(O)c1=O` (stereo not drawn) [Example 6, N-(4-Fluorobenzyl)-5-hydroxy-1-methyl-2-(2-methyl-tetrahydrothiophen-2-yl)-6-oxo-1,6-dihydropyrimidine-4-carboxamide], the IC50 lay in the range of 2 to 100 nM.

In the case of `Cn1c(C2(C)CCCS2)nc(C(=O)NCc2ccc(F)cc2S(C)(=O)=O)c(O)c1=O` (stereo not drawn) [Example 8], the IC50 lay within 2 to 100 nM.
